US20060252732A1, “Blood vessel-growth promoter” (priority 2003, published 2006)

Key:
[1] = test system: human umbilical vein endothelial cells (HUVEC); experiment: Proliferation test on human umbilical vein endothelial cells (HUVEC); type: cell-based
Protocol: Proliferation Test on Human Umbilical Vein Endothelial Cells (HUVEC) […] After the culture broth was filtered by suction, to a minimum essential medium (MEM) broth containing 1% FBS, acetylsalicylic acid was added at a concentration (0, 0.055, 0.55, 5.5, 55, 555 μM, respectively) and each mixture was cultivated. After 0, 24 and 48 hours the number of alive cells was counted. As a positive control vascular endothelial growth factor (VEGF; Vascular Endothelial Growth Factor-A) (20 ng/mL) was used. In this measurement, Cell Counting Kit-8 (Dojin Chemical Co.) was used.

[2] = test system: human vascular endothelial cells (HUVEC) and fibroblast; experiment: Measurement of neo-vascularization ability (tube formation, CD31 staining, Angiogenesis Kit KZ-1000); type: cell-based
Protocol: Measurement of Neo-Vascularization Ability
The tube formation by a mixture-system of human vascular endothelial cells (HUVEC) and fibroblast was investigated by CD31 staining kit (Kurabo Ind.) to be visualized, and be made score by an analytical soft (NIH Image). A broth containing acetylsalicylic (0.5, 5.5, 55 μM; changed every three days) was added to neo-vascularization kit (Angiogenesis Kit KZ-1000; Kurabo Ind.) prepared by mixing human vascular endothelial cells and fibroblast, and the resulting broth was cultivated for 11 days. Then immuno histochemical study was performed by using CD31 staining kit, and the color photo was taken. The picture was analyzed using NIH Image and the amount of the formed tubes was scored as an area to evaluate. As a positive control, vascula endothelial growth factor (VEGF; 10 ng/mL) and as a negative control sramine (100 μM) were used, respectively.

Wister female rats = experiment: Neo-vascularization test using rats (subcutaneous urethane sponge, carmine dye); type: in vivo, rat
Protocol: Neo-Vascularization Test Using Rats
Wister female rats (7 weeks old; n=6) were anesthetized with ether, and a urethane sponge (diameter: 8 mm) previously permeating a drug was inserted in subcutaneous tissue of right shoulder. As a test drug, acetylsalicylic acid (2 mg) and as a positive control retinoid (0.5 mg) were administered, respectively. Four days later after insertion of the sponge, 5% gelatin solution containing 5% carmine dye kept at 37° C. was administered under ether anesthesia in tail vein of the rat. After injection, the rats in suspended animation were left at 4° C. for 2 hours, and the gelatin solution containing carmine dye distributed in blood vessel was solidified. After butcher of the rats, the sponge with granulation tissue was extracted and the dye therein was extracted. Absorbancy at 530 nm was measured to calculate the amount of the carmine dye.

CC(=O)Oc1ccccc1C(=O)O [Acetylsalicylic acid, acetylsalicylic acid]
Change of the number of HUVEC, Relative absorvancy ([1]; 0.055 μM drug, after 0 hour): 1.102 | Change of the number of HUVEC, Relative absorvancy ([1]; 0.055 μM drug, after 24 hours): 1.252 | Change of the number of HUVEC, Relative absorvancy ([1]; 0.055 μM drug, after 48 hours): 1.303 | Change of the number of HUVEC, Relative absorvancy ([1]; 0.55 μM drug, after 0 hour): 1.144 | Change of the number of HUVEC, Relative absorvancy ([1]; 0.55 μM drug, after 24 hours): 2.001 | Change of the number of HUVEC, Relative absorvancy ([1]; 0.55 μM drug, after 48 hours): 1.709 | Change of the number of HUVEC, Relative absorvancy ([1]; 5.5 μM drug, after 0 hour): 1.084 | Change of the number of HUVEC, Relative absorvancy ([1]; 5.5 μM drug, after 24 hours): 1.811 | Change of the number of HUVEC, Relative absorvancy ([1]; 5.5 μM drug, after 48 hours): 1.575 | Change of the number of HUVEC, Relative absorvancy ([1]; 55 μM drug, after 0 hour): 1.107 | Change of the number of HUVEC, Relative absorvancy ([1]; 55 μM drug, after 24 hours): 1.754 | Change of the number of HUVEC, Relative absorvancy ([1]; 55 μM drug, after 48 hours): 1.475 | Change of the number of HUVEC, Relative absorvancy ([1]; 555 μM drug, after 0 hour): 1.017 | Change of the number of HUVEC, Relative absorvancy ([1]; 555 μM drug, after 24 hours): 1.044 | Change of the number of HUVEC, Relative absorvancy ([1]; 555 μM drug, after 48 hours): 0.699 | Proliferation promoting activity of HUVEC ([1]; added in more than 0.055 μM): proliferation promoting activity of HUVEC was confirmed | Proliferation promoting effect on HUVEC ([1]; added in more than 555 μM): proliferation promoting effect was not recognized or was even depressed | Tube-formation promoting activity [2]: showed tube-formation promoting activity | Neo-vascularization ability, Relative area After 11 days ([2]; 5.5 μM): 1.17 | Neo-vascularization ability, Relative area After 11 days ([2]; 55 μM): 1.08 | Neo-vascularization promoting activity in vivo (Wister female rats): neo-vascularization promoting activity was shown | Amount of carmine dye (Wister female rats; 2 mg in sponge, subcutaneous, 4 days after insertion): 16.0 ± 4.2 µg/mL

Cc1ccc(C(=O)Nc2ccc(S(=O)(=O)O)c3cc(S(=O)(=O)O)cc(S(=O)(=O)O)c23)cc1NC(=O)c1cccc(NC(=O)Nc2cccc(C(=O)Nc3cc(C(=O)Nc4ccc(S(=O)(=O)O)c5cc(S(=O)(=O)O)cc(S(=O)(=O)O)c45)ccc3C)c2)c1 [Sramine, sramine]
Neo-vascularization ability, Relative area After 11 days ([2]; 100 μM (negative control)): 0.04

VEGF
Change of the number of HUVEC, Relative absorvancy ([1]; 20 ng/mL (positive control), after 0 hour): 1.003 | Change of the number of HUVEC, Relative absorvancy ([1]; 20 ng/mL (positive control), after 24 hours): 2.041 | Change of the number of HUVEC, Relative absorvancy ([1]; 20 ng/mL (positive control), after 48 hours): 1.889 | Neo-vascularization ability, Relative area After 11 days ([2]; 10 ng/mL (positive control)): 1.71
